Data from ChEMBL document CHEMBL1201862, “PubChem BioAssay data set” (2004).
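In this assay, cells in 96-well plates receive the compound at five concentrations for 48 hours. Endpoints are linearly interpolated between the surrounding concentrations. Abbreviation: GI50, concentration required for 50% inhibition of growth.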 Activity calls are given as the source filed them. Rule as the data show it: active = GI50 up to about 1.1 µM and inactive = higher.

Columns and labels:
Assay in all cases: NCI-60 cell line screen, 48 h
XF498 = system: XF498
MCF7 = system: MCF7
DLD-1 = system: DLD-1
HOP-18 = system: HOP-18
DMS-114 = system: DMS-114
MDA-MB-231 = system: MDA-MB-231
Hs-578T = system: Hs-578T
RXF 631 = system: RXF 631

SMILES | GI50 (XF498) | GI50 (MCF7) | GI50 (DLD-1) | GI50 (HOP-18) | GI50 (DMS-114) | GI50 (MDA-MB-231) | GI50 (Hs-578T) | GI50 (RXF 631)
CN(C)CCCCN1CCc2c(n(C)c3ccccc23)C1=O | 20.7 µM (inactive) | 37.3 µM (inactive) | 60.4 µM (inactive) | > 100 µM (inactive) | > 80.7 µM (inactive) | 24.6 µM (inactive) | 41.8 µM (inactive) | 
CC[P+](C)(Cc1ccccc1)c1ccccc1 (stereo unspecified) | 24.7 µM (inactive) |  | > 100 µM (inactive) | > 100 µM (inactive) | 87.7 µM (inactive) |  |  | 
O=C1C=C(c2ccccc2)NC1(c1ccccc1)c1cc(-c2ccccc2)[nH]c1-c1ccccc1 (stereo unspecified) | < 0.01 µM (active) |  | > 100 µM (inactive) | > 100 µM (inactive) | > 100 µM (inactive) |  |  | > 100 µM (inactive)
Cc1cc(C)c2c(c1)CN1CN2Cc2cc(C)cc(C)c21 | 18.2 µM (inactive) |  | 24.7 µM (inactive) | 36.4 µM (inactive) |  |  |  | 
Cc1cc(=O)n(-c2c(C)cccc2Cl)c(/C=C(\O)c2ccncc2)n1 |  |  | > 100 µM (inactive) | > 100 µM (inactive) | > 100 µM (inactive) |  |  | > 100 µM (inactive)
CC1=C(NC(=O)C(=O)NNC(=O)c2ccncc2)C(=O)c2ccccc2C1=O |  |  | 13.8 µM (inactive) | 10.5 µM (inactive) | 4.76 µM (inactive) |  |  | 40.4 µM (inactive)
CCOC(=O)C(=O)Nc1ccccc1C | 24.9 µM (inactive) |  | > 100 µM (inactive) |  | > 100 µM (inactive) |  |  | > 100 µM (inactive)
CCCCOC(=O)/C(CC(=O)C=C(C)C)=N\NS(=O)(=O)c1ccc(C)cc1 | > 100 µM (inactive) |  | 65.5 µM (inactive) | > 100 µM (inactive) | 21.1 µM (inactive) |  |  | 
O=C1Cc2ccccc2N1/N=C\c1ccc([N+](=O)[O-])cc1 | > 100 µM (inactive) |  | > 100 µM (inactive) | > 100 µM (inactive) | > 100 µM (inactive) |  |  | 
CC(C)c1ccc(Cc2ccc(C(C)C)c(NC(=O)C(=O)Cc3cnc4ccccc4n3)c2C(C)C)c(C(C)C)c1NC(=O)C(=O)Cc1cnc2ccccc2n1 |  |  | > 100 µM (inactive) |  | > 100 µM (inactive) |  |  | > 100 µM (inactive)
CC(C)N(C(=O)C12C3C4C1C1C2C3C41C(=O)N(C(C)C)C(C)C)C(C)C (stereo unspecified) | > 50 µM (inactive) |  | > 50 µM (inactive) |  | > 50 µM (inactive) |  |  | > 50 µM (inactive)
[N-]=[N+]=C1C(=O)C2CC3CC(C2)CC1C3 | > 100 µM (inactive) |  | > 100 µM (inactive) | > 100 µM (inactive) | > 100 µM (inactive) |  |  | 
CC1(C)Cc2c(oc3ncnc(N)c23)CS1 | > 100 µM (inactive) |  | > 100 µM (inactive) |  | > 100 µM (inactive) |  |  | > 100 µM (inactive)
CCCNC(=O)C1C(=O)C(=O)N(CCC)C1=O (stereo unspecified) | > 100 µM (inactive) |  | > 100 µM (inactive) | > 100 µM (inactive) | > 100 µM (inactive) |  |  | 
Cc1ccc(C2OC(COCc3ccc(Cl)cc3)C(OCc3ccc(Cl)cc3)C2O)cc1 (stereo unspecified) | 10.2 µM (inactive) |  | 9.29 µM (inactive) | 79.4 µM (inactive) | 5.24 µM (inactive) |  |  | 
OC(c1ccccc1Br)(c1ccccc1Br)C(F)(F)F | 23.1 µM (inactive) |  | 37.5 µM (inactive) | 42.8 µM (inactive) | 20.8 µM (inactive) |  |  | 
OCC(O)C(OC1OC(CO)C(O)C(O)C1O)c1nn(-c2ccc(Cl)cc2)c2nc3cc(Cl)ccc3nc12 (stereo unspecified) | > 100 µM (inactive) |  | > 100 µM (inactive) |  | > 100 µM (inactive) |  |  | > 100 µM (inactive)
COC(=O)NC12CC3CC(CC(F)(C3)C1)C2 | > 100 µM (inactive) |  | > 100 µM (inactive) |  |  |  |  | > 100 µM (inactive)
CCOC(=O)[C@]12C3C=CC(C3)C1C(=O)C1OC12 (stereo partly specified) | > 100 µM (inactive) |  | > 100 µM (inactive) | > 100 µM (inactive) | > 100 µM (inactive) |  |  | > 100 µM (inactive)
CC1=C2C(=CC(C)(CO)C2O)C(=O)C(C)(O)C12CC2 (stereo unspecified) |  |  | 0.00895 µM (active) | 0.007 µM (active) | 0.00205 µM (active) |  |  | 0.00274 µM (active)
Cc1c(C(=O)/C=C/c2ccc3c(c2)OCO3)[n+]([O-])c2ccccc2[n+]1[O-] | 25.8 µM (inactive) |  | 38.6 µM (inactive) | 86.7 µM (inactive) | 21.4 µM (inactive) |  |  | 53.6 µM (inactive)
Cc1cccc(N(CC(=O)O)S(=O)(=O)c2ccccc2)c1 | > 100 µM (inactive) |  | > 100 µM (inactive) | > 100 µM (inactive) |  |  |  | > 100 µM (inactive)
